Test results published in patent publication US9180174B2, “Conjugates comprising mannan and myelin oligodentrocyte glycoprotein (MOG)” (priority 2008, dated 2015).
Ends that are not written are not given here.

Experiments:
PLP139-151-EAE = assay: Prophylactic vaccination before PLP139-151-EAE induction, clinical score; type: in vivo, SJL/J mice; conditions: FIG. 10; for clinical score (peak): 6-grade scale, 0.5 = weight loss
Description: (§1) Groups of female animals (age range 6-10 week old C57BL/6 or SJL/J mice and 12-15 week old Lewis rats) were immunized intra-dermally with 100 μl solution containing 30 μg peptide (MOG35-55) or 50 μg PLP139-151 peptide for mice and 30 μg MBP83-99 for Lewis rats) conjugated to 70 μg oxidized or reduced mannan diluted in bi-carbonate buffer, pH 9.0. As controls, age matched groups of animals were vaccinated with oxidized or reduced mannan alone, saline or 30-50 μg of peptide alone. Three consecutive vaccinations were performed spaced 15 days apart. Fifteen days after the last vaccination EAE was induced.
EAE was induced in SJL/J mice using a standard protocol. 150 μg of PLP139-151 was dissolved in PBS and emulsified in an equal volume of CFA (containing […] of heat killed Mycobacterium Tuberculosis HR37a, Sigma). On Day 0 (day of disease induction), one s.c injection was given by injecting 150 μg PLP139-151/200 μl per mouse in both of the flanks. Each mouse also received 400 ng pertussis toxin (Sigma, P2980) (i.p) dissolved in 200 μl PBS. On day 2, mice were received a booster of pertussis toxin (200 ng pertussis toxin dissolved in 200 μl PBS per mouse) Animals were daily evaluated for clinical signs of disease, starting from day 1 post immunisation, using a 6-grade clinical scale: 0, normal animal; 0.5, weight loss; 1, inability to elevate the tail above the horizontal level, tail weakness; 2, tail paralysis; 3, tail paralysis/hind limb paresis; 4, hind limb paralysis/forelimb weakness; 5, quadriplegia/moribund; 6, death from EAE. Moreover, animals were daily weighted throughout the entire experimental period.

MOG35-55-EAE [1] = assay: Prophylactic vaccination before MOG35-55-EAE induction, clinical score and body weight; type: in vivo, C57BL/6 mice; conditions: for protection from MOG35-55-EAE development (clinical score): three vaccinations 15 days apart, EAE induced 15 days after the last, FIG. 1
MOG35-55-EAE [2] = assay: Histopathological analysis of spinal cord and brain after MOG35-55-EAE induction; type: in vivo, C57BL/6 mice
splenocytes [3] = assay: T cell priming and proliferation assay, [3H]-thymidine incorporation, ex vivo MOG35-55 recall; type: cell-based, C57BL/6 mice; conditions: day 25 post EAE induction, versus mannan alone or PBS; FIGS. 7 and 8
Description: Isolated splenocytes were cultured for 72 h in 96-well plates in RPMI 1640 (Invitrogen Life Technologies, Gaithersburg, Md.) containing 10% heat-inactivated FCS, 50 μM 2-ME, and increasing concentrations of MOG35-55 peptide. Cells were stimulated in triplicate at 2×10^6 cells/ml in round-bottom, 96-well plates (Costar). Cells were pulsed with 1 μCi/5×10^5 cells [^3H]-thymidine in triplicate (Amersham Radiochemicals) for the last 16 h of culture. [^3H]-thymidine incorporation was measured by liquid scintillation counting (Wallac, Turku, Finland). Results are expressed as the stimulation index (ratio between radioactivity counts of cells cultured in presence of peptide and cells cultured with media alone).

splenocytes [4] = assay: Cytokines in splenocyte culture supernatants (cytometric bead array, IL-17 ELISA); type: cell-based, C57BL/6 mice; conditions: 10 μg/ml MOG35-55, day 25 post EAE induction; FIG. 9
Excerpt: The mouse Th1/Th2 cytokine cytometric bead array kit (BD Biosciences) was used to measure cytokine levels in culture supernatants according to the manufacturer's instructions. The cytokines measured with this kit were: IL-2, IL-4, IL-5, IFN-γ and TNF-α. In addition a mouse IL-17 ELISA set (R&D Systems, Germany) was used to measure cytokine secretion from splenocyte cell culture supernatants according to manufacturer's instructions. The sensitivity of the assay for different cytokines was as follows: IL-2, IL-4 and IL-5=5.0 pg/ml; IFN-γ=2.5 pg/ml; TNF-α=6.3 pg/ml.

EAE = EAE in animal models (summary statements); type: in vivo; conditions: unconjugated peptide
Description: as §1

[5] = 24 days after EAE induction, FIG. 5

**Q.** What does the source list for “reduced mannan-PLP139-151: PLP139-151 peptide with a [(Lys-Gly)5] bridge conjugated to mannan, reduced with sodium borohydride”?
**A.** clinical score (peak) (PLP139-151-EAE): 0.5; induction of / protection from PLP139-151-EAE (PLP139-151-EAE): did not induce EAE

**Q.** “oxidized mannan-MOG35-55: MOG35-55 peptide with a [(Lys-Gly)5] bridge conjugated to oxidized mannan via Schiff base formation (MEVGWYRSPFSRVVHLYRNGK; also: (Lys-Gly)5 bridge, site not given here, conjugated to oxidized mannan via Schiff base; UniProt Q61885 63-83, looked up, fragment)” was tested. Which “wasting symptoms (daily weight measurement)” value (MOG35-55-EAE [1]; FIG. 2) did it give?
**A.** Its value is “absence of wasting symptoms”.

**Q.** What about the “protection from MOG35-55-EAE development (clinical score)” value (MOG35-55-EAE [1]) of the same substance?
**A.** Its value is “significant protection”.

**Q.** What about the “protection from MOG35-55-EAE development (clinical score)” value (MOG35-55-EAE [1]; listed as MOG35-55 peptide conjugated to oxidized mannan) of the same substance?
**A.** The value was “greatest degree of protection”.

**Q.** What about the “demyelinating lesions in the spinal cord” value (MOG35-55-EAE [2]; [5]) of the same substance?
**A.** The value was “no demyelinating lesions”.

**Q.** What about the “inflammatory infiltration in the spinal cord” value (MOG35-55-EAE [2]; [5]) of the same substance?
**A.** The value was “little inflammatory infiltration”.

**Q.** And the “inflammatory and demyelination index, brain and spinal cord” value (MOG35-55-EAE [2]; individual mice, FIG. 6)?
**A.** The value was “marked reduction”.

**Q.** And the proliferation of splenocytes (splenocytes [3])?
**A.** The proliferation of splenocytes was “Significant reduced proliferation”.

**Q.** And the “amount of IL-17 secreted by MOG35-55 specific T cells” value (splenocytes [4])?
**A.** Its value is “reduction”.

**Q.** And the “levels of Th1 cytokines (IFN-γ, TNF-α, IL-2)” value (splenocytes [4])?
**A.** Its value is “reduction”.

**Q.** “oxidized mannan-PLP139-151: PLP139-151 peptide with a [(Lys-Gly)5] bridge conjugated to oxidized mannan via Schiff base formation” was tested. Which “clinical score (peak)” value (PLP139-151-EAE) did it give?
**A.** The value was 0.5.

**Q.** What about the “induction of / protection from PLP139-151-EAE” value (PLP139-151-EAE) of the same substance?
**A.** The value was “did not induce EAE”.

**Q.** And the “induction of / protection from PLP139-151-EAE” value (PLP139-151-EAE; listed as PLP139-151-oxidized mannan)?
**A.** The value was “completely protected”.

**Q.** What does the source list for “H-Met-Glu-Val-Gly-Trp-Tyr-Arg-Pro[Ser]-Pro-Phe-Ser-Arg-Val-Val-His-Leu-Tyr-Arg-Asn-Gly-Lys-OH [MOG35-55, reference compound]”?
**A.** disease course after day 20 of disease progression (MOG35-55-EAE [1]; after day 20, FIGS. 3 and 4): exacerbated; EAE compared to non vaccinated controls at initial stages of disease (MOG35-55-EAE [1]; initial stages, FIGS. 3 and 4): significantly lower; susceptibility to MOG-EAE after vaccination with peptide alone (MOG35-55-EAE [1]; three prior challenges with unconjugated peptide, FIGS. 3 and 4): still susceptible to MOG-EAE; delay of EAE initiation (MOG35-55-EAE [1]; versus non-vaccinated controls, FIGS. 3 and 4): 3 days; proliferation of splenocytes (splenocytes [3]): did not show a reduction; induction of EAE by the linear peptide (EAE): induce EAE

**Q.** “H-Glu-Asn-Pro-Val-Val-His-Phe-Phe-Lys-Asn-Ile-Val-Thr-Pro-Arg-Thr-Pro-OH (H-ENPVVHFFKNIVTPRTP-OH) [MBP83-99]” was tested. Which “induction of EAE by the linear peptide” value (EAE) did it give?
**A.** Its value is “induce EAE”.

**Q.** Which results are given for “reduced mannan-MOG35-55: MOG35-55 peptide with a [(Lys-Gly)5] bridge conjugated to mannan, reduced with sodium borohydride (MEVGWYRSPFSRVVHLYRNGK; also: (KG)5 bridge, site not given here, conjugated to mannan, reduced with sodium borohydride; UniProt Q61885 63-83, looked up, fragment)”?
**A.** protection from MOG35-55-EAE development (clinical score) (MOG35-55-EAE [1]): significant protection; protection from MOG35-55-EAE development (clinical score) (MOG35-55-EAE [1]; listed as MOG35-55 peptide conjugated to reduced mannan): significant inhibition from disease manifestation; extent of lymphocyte infiltration and demyelination (overall protective effect) (MOG35-55-EAE [2]; [5]): Intermediate protective effects; proliferation of splenocytes (splenocytes [3]): Significant reduced proliferation; amount of IL-17 secreted by MOG35-55 specific T cells (splenocytes [4]): reduction; levels of Th1 cytokines (IFN-γ, TNF-α, IL-2) (splenocytes [4]): reduction

**Q.** “H-His-Ser-Leu-Gly-Lys-Trp-Leu-Gly-His-Pro-Asp-Lys-Phe-OH (H-HSLGKWLGHPDKF-OH) [PLP139-151]” was tested. Which “induction of EAE by the linear peptide” value (EAE) did it give?
**A.** The value was “induce EAE”.
